Reference: ChEMBL document CHEMBL1201862, “PubChem BioAssay data set” (2004)
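A five-concentration, 48-hour dose response in 96-well plates underlies each endpoint, interpolated linearly between surrounding concentrations. GI50 = concentration required for 50% inhibition of growth.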 The source made the active and inactive calls. Cut-off read from the data, not from the text of the source: active = GI50 up to about 1.1 µM and inactive = higher.

What was measured:
Assay in all cases: inhibition of tumour cell growth, NCI panel, 48 h
M19-MEL = tested on: M19-MEL
XF498 = tested on: XF498
KM-20L2 = tested on: KM-20L2
HOP-18 = tested on: HOP-18
SNB-78 = tested on: SNB-78
LXFL 529 = tested on: LXFL 529
RXF 631 = tested on: RXF 631
DMS-273 = tested on: DMS-273

CCc1cccc(C(C)CC)c1/N=C(/NC(=O)c1ccccc1C(=O)N/C(=N/c1c(CC)cccc1C(C)CC)SC)SC (stereo not drawn)
GI50 (M19-MEL): 51.4 µM (inactive) | GI50 (XF498): 48.4 µM (inactive) | GI50 (KM-20L2): 28.4 µM (inactive) | GI50 (HOP-18): 26.8 µM (inactive) | GI50 (SNB-78): 21.5 µM (inactive) | GI50 (LXFL 529): 39.9 µM (inactive) | GI50 (RXF 631): 51.2 µM (inactive)

O=C(/C=C/c1ccccc1O)c1ccccc1Cl
GI50 (M19-MEL): 64.6 µM (inactive) | GI50 (XF498): 40.5 µM (inactive) | GI50 (KM-20L2): > 100 µM (inactive) | GI50 (HOP-18): 49.4 µM (inactive) | GI50 (SNB-78): 47.2 µM (inactive) | GI50 (LXFL 529): 30.5 µM (inactive) | GI50 (DMS-273): 40.2 µM (inactive) | GI50 (RXF 631): 52.7 µM (inactive)

CN(C)CCONC(=O)C12CC3CC(CC(C3)C1)C2
GI50 (M19-MEL): > 100 µM (inactive) | GI50 (XF498): > 100 µM (inactive) | GI50 (KM-20L2): > 100 µM (inactive) | GI50 (SNB-78): 26.2 µM (inactive) | GI50 (LXFL 529): > 100 µM (inactive) | GI50 (RXF 631): > 100 µM (inactive)

COC(=O)CCC(NC(=S)N/N=C(\C)c1ccccn1)C(=O)OC (stereo not drawn)
GI50 (M19-MEL): 37.2 µM (inactive) | GI50 (XF498): > 100 µM (inactive) | GI50 (KM-20L2): 32.4 µM (inactive) | GI50 (HOP-18): 41.4 µM (inactive) | GI50 (LXFL 529): 40.4 µM (inactive) | GI50 (RXF 631): 34.1 µM (inactive)

C=CCO[C@H]1CC[C@@]2(C)C(CC[C@]3(C)C2CC=C2[C@@H]4[C@@H](C)C(C)CC[C@]4(C(=O)O)CCC23C)C1(C)C (stereo partly drawn)
GI50 (M19-MEL): 17.7 µM (inactive) | GI50 (XF498): 7.1 µM (inactive) | GI50 (KM-20L2): 17.3 µM (inactive) | GI50 (HOP-18): 22 µM (inactive) | GI50 (SNB-78): 17.6 µM (inactive) | GI50 (LXFL 529): 12.6 µM (inactive) | GI50 (RXF 631): 13.7 µM (inactive)

Clc1ccc(OCc2nnc3n2N=C(c2ccc(Br)cc2)CS3)cc1
GI50 (M19-MEL): 23.6 µM (inactive) | GI50 (XF498): 4.24 µM (inactive) | GI50 (SNB-78): 21.5 µM (inactive) | GI50 (LXFL 529): 15.2 µM (inactive) | GI50 (DMS-273): 29.8 µM (inactive) | GI50 (RXF 631): > 10 µM (inactive)

Cc1ccc(S(=O)(=O)N/N=C/c2oc(-c3ccncc3)c(-c3ccncc3)c2[N+](=O)[O-])cc1
GI50 (M19-MEL): > 100 µM (inactive) | GI50 (XF498): > 100 µM (inactive) | GI50 (KM-20L2): > 100 µM (inactive) | GI50 (HOP-18): > 100 µM (inactive) | GI50 (SNB-78): > 100 µM (inactive) | GI50 (LXFL 529): > 100 µM (inactive) | GI50 (DMS-273): > 100 µM (inactive) | GI50 (RXF 631): > 100 µM (inactive)

CC(C)(c1ccccc1)c1ccc(Oc2ccc3c(c2)-c2nc-3nc3[nH]c(nc4nc(nc5[nH]c(n2)c2ccc(Oc6ccc(C(C)(C)c7ccccc7)cc6)cc52)-c2cc(Oc5ccc(C(C)(C)c6ccccc6)cc5)ccc2-4)c2ccc(Oc4ccc(C(C)(C)c5ccccc5)cc4)cc32)cc1
GI50 (M19-MEL): > 100 µM (inactive) | GI50 (XF498): 78 µM (inactive) | GI50 (KM-20L2): > 100 µM (inactive) | GI50 (SNB-78): > 100 µM (inactive) | GI50 (LXFL 529): > 100 µM (inactive) | GI50 (DMS-273): > 100 µM (inactive) | GI50 (RXF 631): > 100 µM (inactive)

CCOc1ccccc1NC(=O)C(C#N)C1=C(Cl)C(=O)c2ccccc2C1=O (stereo not drawn)
GI50 (M19-MEL): 0.177 µM (active) | GI50 (XF498): 2.29 µM (inactive) | GI50 (KM-20L2): 1.93 µM (inactive) | GI50 (HOP-18): 1.5 µM (inactive) | GI50 (SNB-78): 3.32 µM (inactive) | GI50 (LXFL 529): 1.85 µM (inactive) | GI50 (DMS-273): 1.88 µM (inactive) | GI50 (RXF 631): 2.09 µM (inactive)
